From paper PMC8287028 (Frontiers in Veterinary Science, 2021)
Where “and” joins values, the source holds several entries; their conditions need not be identical. Equal values may be shown once. Read-outs that look alike come from different tables or passages of the source.

How the values were obtained:
[1] = Pharmacokinetics after intravenous apixaban, plasma concentrations by LC/MS; type: in vivo, dog; conditions: dogs; for Vd: read-out: Vd (volume of distribution); for AUC: read-out: AUC (area-under-the-curve); for C0: read-out: C0 (concentration at time zero); for clearance: read-out: CL (systemic clearance) (converted); for half-life: read-out: K10 T½ (elimination half-life) (converted); for MRT: read-out: MRT (mean residence time)
Protocol: All injection durations were identical.
Catheters were flushed with 0.9% saline, without heparin.
Analyses of plots and PK modeling were performed using compartmental methods in standard software (Phoenix, WinNonlin, Certara, St. Louis, MO). One-, 2- and 3-compartment models were fit to the plasma concentration data.

[2] = biological target: T1, bovine activated Factor X (Bos taurus, UniProt P00743); test: Apixaban-calibrated anti-Xa activity (aXa) chromogenic bioassay on plasma of dosed dogs; type: in vivo
T1 construct: purchased Diagnostica Stago STA Liquid anti-Xa
T1 sequence (P00743 234-492 limits assumed): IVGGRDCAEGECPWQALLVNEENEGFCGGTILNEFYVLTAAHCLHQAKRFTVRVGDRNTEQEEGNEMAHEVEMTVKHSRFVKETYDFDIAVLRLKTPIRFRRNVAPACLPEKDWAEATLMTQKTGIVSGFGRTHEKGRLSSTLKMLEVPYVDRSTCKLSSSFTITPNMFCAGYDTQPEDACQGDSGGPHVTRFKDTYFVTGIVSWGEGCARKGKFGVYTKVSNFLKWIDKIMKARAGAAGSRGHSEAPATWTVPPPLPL
T1 sequence (P00743 41-180 limits assumed): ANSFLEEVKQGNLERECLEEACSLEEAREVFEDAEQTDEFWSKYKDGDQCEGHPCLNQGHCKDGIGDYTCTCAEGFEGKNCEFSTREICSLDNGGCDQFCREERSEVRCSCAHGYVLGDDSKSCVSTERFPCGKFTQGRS
Protocol: (§1) Coagulation assays were performed on platelet-poor, citrated plasma samples by a reference laboratory (Comparative Coagulation Laboratory, Animal Health Diagnostic Center, Ithaca, NY). […] The assay is configured with a bovine activated Factor X reagent that is added in excess to the test plasma and a chromogenic substrate of Factor Xa (STA Liquid anti-Xa, Diagnostica Stago). Residual, uninhibited Factor Xa cleaves the chromogenic substrate such that the inverse of the color change in the reaction mixture is proportional to the drug concentration in the test plasma. […] A mechanical endpoint method (STA Compact, Diagnostica Stago) and human coagulation reagents were used to measure prothrombin time (Thromboplastin LI, Helena Diagnostics, Beaumont, TX) and activated partial thromboplastin time (Dade Actin FS, Dade Behring, Newark, DE). […] Tissue-factor (1:50,000 final dilution) activated TEG was performed using standard equipment (TEG-5000, Haemonetics, Braintree, MA) as previously reported ([35]), with assays conducted per established guidelines ([36]), with a modification to eliminate the rest time to facilitate rapid sample processing. Thromboelastography assays were conducted by experienced operators using four TEG channels and tracings terminated after maximum amplitude was established. Four values were extracted from TEG tracings: reaction time (R-time), clot formation time (K-time), clot formation angle (alpha), and maximum amplitude (MA).
Pairwise comparisons between continuous variables were conducted with Wilcoxon matched-pairs signed rank test, while comparisons of more than two groups were conducted using the Friedman test with Dunn's post-hoc adjustment. Specifically, the Wilcoxon matched-pairs signed rank tests were used to compare the complete blood count and serum chemistry values between baseline and the +24 h time point. Comparisons of pharmacodynamic variables between baseline values and those at discrete sampling intervals were performed using the Friedman test with Dunn's post-hoc correction for multiple comparisons. […] Alpha was set at 0.05. Statistical analyses were performed using commercial software (Prism 9, GraphPad, La Jolla, CA).

[3] = test system: prothrombin time; test: Prothrombin time (PT) on citrated plasma of dosed dogs; type: in vivo, dog
Protocol: as §1, with “plasma. […] Assay controls, consisting of human plasma spiked with apixaban (STA Apixaban Controls, Diagnostica Stago) were analyzed before each batch of test samples to confirm assay performance. The apixaban levels in calibrators and controls are defined by the manufacturer from an internal reference assayed by HPLC-MS.” for “plasma.”
Pairwise comparisons between continuous variables were conducted with Wilcoxon matched-pairs signed rank test, while comparisons of more than two groups were conducted using the Friedman test with Dunn's post-hoc adjustment. […]

[4] = biological target: dog factor Xa; conditions: in vitro, isolated factor Xa, cited from earlier work
[5] = cats, cited from earlier work
[6] = horses, cited from earlier work
[7] = both sexes, mixed-breed, dog, plasma, iv, 0.18 mg/kg, IV, mean dose 0.18 mg/kg, geometric mean
[8] = both sexes, mixed-breed, dog, plasma, iv, 0.18 mg/kg, IV, mean dose 0.18 mg/kg, mean of 6 dogs
[9] = IV, mean dose 0.18 mg/kg, individual dogs (Dog 1-6), 0.18 mg/kg

Q: What does the source list for `COc1ccc(-n2nc(C(N)=O)c3c2C(=O)N(c2ccc(N4CCCCC4=O)cc2)CC3)cc1` [apixaban]?
A: Vd ([1]; both sexes, mixed-breed, dog, in vivo, iv, 0.18 mg/kg, IV, mean dose 0.18 mg/kg, individual dogs (Dog 1-6)): 0.163 L/kg; AUC [1, 7]: 5620 ng·h/mL; C0 [1, 7]: 1000 ng/mL; clearance [1, 7]: 0.52 mL/min/kg; half-life [1, 7]: 3.9 h; MRT [1, 7]: 5.6 h; Vd [1, 7]: 0.175 L/kg; C0 ([1]; both sexes, mixed-breed, dog, plasma, iv, 0.18 mg/kg, IV, mean dose 0.18 mg/kg, individual dogs (Dog 1-6)): 1210 ng/mL; AUC [1, 8]: 6030 ng·h/mL; C0 [1, 8]: 1010 ng/mL; clearance [1, 8]: 0.563 mL/min/kg; half-life [1, 8]: ~4.1 h; MRT [1, 8]: 6 h; Vd [1, 8]: 0.177 L/kg; concentration at 24 h ([1]; both sexes, mixed-breed, dog, plasma, IV 0.18 mg/kg, at 24 h, read-out: mean residual plasma concentration): 17 ng/mL; AUC ([1]; both sexes, mixed-breed, in vivo, IV, mean dose 0.18 mg/kg, one-compartment model, individual dogs (Dog 1-6)): 8140 ng·h/mL; AUC (area-under-the-curve) ([1]; IV, mean dose 0.18 mg/kg, one-compartment model, individual dogs (Dog 1-6), 0.18 mg/kg): 5,726.9 h*ng/ml and 4,802.6 h*ng/ml and 7,639.4 h*ng/ml and 7,330.9 h*ng/ml and 2,516.3 h*ng/ml; K10 (first order elimination rate) ([1]; IV, mean dose 0.18 mg/kg, geometric mean): 0.2 h⁻¹; C0 (concentration at time zero) [1, 9]: 853.9 ng/ml and 1,108.0 ng/ml and 958.3 ng/ml and 1,005.0 ng/ml and 913.4 ng/ml; CL (systemic clearance) [1, 9]: 0.573 mL/min/kg and 0.683 mL/min/kg and 0.39 mL/min/kg and 0.367 mL/min/kg and 0.348 mL/min/kg and 1.01 mL/min/kg; K10 (first order elimination rate) [1, 9]: 0.2 1/h (3×) and 0.1 1/h (2×) and 0.4 1/h; K10 T½ (elimination half-life) [1, 9]: 3.3 h and 4.8 h and 5.9 h and 5.1 h and 1.9 h; K10 (first order elimination rate) ([1]; IV, mean dose 0.18 mg/kg, mean of 6 dogs): 0.2 h⁻¹; mean aXa activity following intravenous injection ([2]; IV 0.18 mg/kg, at mean plasma concentration […]): 650 ng/mL; Emax (anti-Xa activity) ([2]; IV, mean dose 0.18 mg/kg, model E=(Emax x C)/(C+EC50)): 1400.5 ng/mL; mean aXa activity compared with human values ([2]; PO 0.2 mg/kg): remained below values typically observed for human moderate to high dose anticoagulant effect; aXa corresponding to the mean maximum observed plasma concentration ([2]; PO 0.2 mg/kg, 6 h post-dosing): 128 ng/mL; time of peak aXa activity ([2]; following oral administration 0.2 mg/kg): approximately 5 h; PT versus baseline ([3]; IV 0.18 mg/kg, at 5, 15, 30 and 60 min): significantly prolonged; concentration required to double the PT from baseline ([3]; IV, estimate from the regression equation line of Figure 2B): 2,485 ng/ml; PT versus baseline ([3]; PO 0.2 mg/kg, at 4, 6 and 8 h): significantly prolonged; inhibitor constant (Ki) [4]: 0.78 ng/mL; Ki ([4]; read-out: inhibitor constant (Ki)): 1.7 nM; time of peak aXa activity ([5]; following oral administration): 4 h; half-life ([5]; intravenously administered apixaban): 1.13 h; half-life ([5]; oral apixaban): 3.3 h; bioavailability ([5]; oral): 85.5%; plasma concentrations after oral administration ([6]; oral): did not lead to quantifiable apixaban concentrations in plasma; time by which concentrations declined below the lower limit of quantitation ([6]; single injection): ≤ 8 h; half-life [6]: 1.3 h; protein binding [6]: highly protein bound
